Experiment [1] deals with T1, LspMrs (lipoprotein signal peptidase II from methicillin-resistant Staphylococcus aureus) (Staphylococcus aureus, UniProt Q6GHN9).
T1 construct: MGSS-hexahistidine-SSGR-TEV site (ENLYFQ) (N, cleaved yes); made in house; host or cells: E. coli C43 (DE3)
The experiment is described as follows: FRET lipopeptide peptidase assay, LspMrs. The format is biochemical. Particulars: for IC50: IC50, FRET, 0.3 µM enzyme, 80 µM substrate, initial rates; for Rate (RFU/min): replicates 1 and 2. The procedure: FRET activity assays. A FRET based assay was developed using a labelled lipopeptide substrate (Supplementary Methods, Supplementary Fig. 3b) to directly monitor the protease activity of LspA. The optimised LspMrs assay buffer included 100 mM Tris/HCl pH 7.8, 150 mM NaCl and 0.09%(w/v) DDM. The corresponding optimized buffer for LspPae included 100 mM MES/NaOH pH 5.6, 150 mM NaCl and 0.05%(w/v) LMNG. All assays were performed at 37 °C.
Reaction mixtures were prepared by pipetting the FRET lipopeptide substrate (dissolved in DMSO) directly into assay buffer at a final concentration of 80 µM. Reaction mixtures were prepared by vortexing (Clifton, cyclone CM-1) for 2 s and incubated at 37 °C, 800 rpm for 10 to 30 min. Equal volumes of the reaction mixture were pipetted into 1.5 mL Eppendorf tubes and 0 to 150 µM globomycin or myxovirescin (in DMSO) added. For dose-response assays, the final DMSO concentration in all reactions was 10%(v/v). Reaction mixtures were pipetted into wells of a 96- (Thermo Scientific) or a 384-well plate (4titude®) and incubated for 10 min at 37 °C in a SpectraMax M3 or a SpectraMax M5e plate reader (Molecular devices) prior to starting the assay. Assays were initiated by adding enzyme to a final concentration in the range 10–300 nM. Total reaction mixture volume was 50 μL. Reactions were monitored by fluorescence (Ex/Em, 320 nm/420 nm) for 30 to 60 min at 37 °C. Initial rates were calculated from the fluorescence intensity versus time progress curves (Supplementary Figs. 5 and 6). Occasionally, lag periods in the progress curves were observed (Supplementary Discussion). In such cases, initial rates were calculated after the lag period had passed (typically 1–5 min) and a steady rate had been established. Dose-response plots to determine IC50 values were generated using Prism® 5 software from GraphPad.
It was possible to convert units of fluorescence change into moles of substrate consumed or products formed because pure products of LspA action on Abz-LALAGC*SS-nY-NH2 had been synthesized and were available. These were used to create a standard curve of fluorescence versus moles of the two products in equimolar amounts and to calculate specific activity values.

Experiment [2] deals with T2, LspMrs R110K (Staphylococcus aureus, UniProt Q6GHN9, R110K).
T2 construct: MGSS-hexahistidine-SSGR-TEV site (ENLYFQ) (N, cleaved yes); made in house; host or cells: E. coli C43 (DE3)
As to the kind of experiment: Gel-shift peptidase assay, LspMrs R110K mutant. It counts as biochemical, methicillin-resistant Staphylococcus aureus. The procedure: (§1) LspA mutant genes (N52A, N52Q, G54A, G54P, R110A, R110K, D118N, N133A, N133Q and D136N) were obtained by site-directed mutagenesis of the wild-type lspA construct in pETDuet. Mutagenesis was performed using the Q5® Site-Directed Mutagenesis Kit (New England Biolabs) and specific primers are listed in Supplementary Table 5. The correct mutations were confirmed by sequencing (Eurofins Genomics). Expression and purification of all LspMrs wild-type and mutants for enzyme assays were performed as described above with the following modifications: TALON® Metal Affinity Resin (Clontech) was used for IMAC purification and the detergent DDM was used for membrane solubilisation and protein purification.
(§2) The peptidase activity of LspMrs and P. aeruginosa LspA (LspPae) was quantified in a coupled gel-shift assay developed previously for LspPae[5]. The P. aeruginosa lipoprotein pre-proICP and the first two enzymes in the bacterial lipoprotein processing pathway Lgt and LspA were expressed and purified, as described. For FRET assays LspMrs was expressed and purified as described above and LspPae was expressed and purified as described in a published protocol.
(§3) Gel-shift activity assay. […] Band intensities of ICP were quantified using Image Lab. […]

Experiment [3] concerns the target T3, LspMrs N52Q (Staphylococcus aureus, UniProt Q6GHN9, N52Q).
T3 construct: MGSS-hexahistidine-SSGR-TEV site (ENLYFQ) (N, cleaved yes); made in house; host or cells: E. coli C43 (DE3)
The experiment is described as follows: Gel-shift peptidase assay, LspMrs N52Q mutant. It counts as biochemical, methicillin-resistant Staphylococcus aureus. Here is the method: as §1, §2, §3

For orientation: IC50 means the point on the concentration scale where inhibition reaches its midpoint.

The structures appear in SMILES notation. Where “and” joins values, the source holds several entries; their conditions need not be identical. Equal values may be shown once.

Regarding `CCCCCC[C@H]1OC(=O)CNC(=O)[C@H]([C@H](C)O)NC(=O)[C@H](CO)NC(=O)[C@H]([C@H](C)CC)NC(=O)[C@H](CC(C)C)N(C)C(=O)[C@@H]1C` [globomycin], the 50% inhibitory concentration (IC50) in experiment [1] is 170 nM and 167 nM; in experiment [2] it was 1730 ± 100 nM; in experiment [3] it was 2430 ± 340 nM. The “Rate (RFU/min)” value in experiment [1] (LspMrs + Globomycin, log [globomycin] (µM) 0.00) was 0 RFU/min; in experiment [1] (LspMrs + Globomycin, log [globomycin] (µM) -0.30) it was 0 RFU/min; in experiment [1] (LspMrs + Globomycin, log [globomycin] (µM) -0.52), 0.33 RFU/min and 0.27 RFU/min; in experiment [1] (LspMrs + Globomycin, log [globomycin] (µM) -0.70) it was 0.64 RFU/min and 0.57 RFU/min; in experiment [1] (LspMrs + Globomycin, log [globomycin] (µM) -1.00) it was 1.06 RFU/min and 1.05 RFU/min; in experiment [1] (LspMrs + Globomycin, log [globomycin] (µM) -2.00) it was 1.47 RFU/min and 1.55 RFU/min. For the same compound, the “Rate (RFU/min)” value in experiment [1] (LspMrs + Globomycin, log [globomycin] (µM) -3.00) is 1.53 RFU/min and 1.49 RFU/min.

On to `CCCC1OC(=O)C(C)CC(C)CCCCC(=O)CCCC(CC)C=CC=C(COC)CCC(O)C(O)CC(O)CNC1=O` (centres unmarked) [myxovirescin, myxovirescin A1], for which the IC50 in experiment [1] worked out at 151 nM; in experiment [2], 400 ± 30 nM; in experiment [3], 290 ± 80 nM. Further, the “Rate (RFU/min)” value is 0 RFU/min in experiment [1] (LspMrs + Myxovirescin, log [myxovirescin] (µM) 0.00); 0 RFU/min in experiment [1] (LspMrs + Myxovirescin, log [myxovirescin] (µM) -0.30); 0 RFU/min and 0.13 RFU/min in experiment [1] (LspMrs + Myxovirescin, log [myxovirescin] (µM) -0.52); 0.55 RFU/min and 0.58 RFU/min in experiment [1] (LspMrs + Myxovirescin, log [myxovirescin] (µM) -0.70); 1.04 RFU/min in experiment [1] (LspMrs + Myxovirescin, log [myxovirescin] (µM) -1.00); 1.47 RFU/min and 1.55 RFU/min in experiment [1] (LspMrs + Myxovirescin, log [myxovirescin] (µM) -2.00). For the same compound, in experiment [1] (LspMrs + Myxovirescin, log [myxovirescin] (µM) -3.00), the “Rate (RFU/min)” value was 1.49 RFU/min and 1.52 RFU/min.
